Measurements as given in patent US20060165656A1, “Medicinal preparation having chemotherapeutic encapsulated therein” (priority 2002, published 2006).
Where two headings read alike, the source gives them in different places.

Columns and labels:
[1] = test system: Mouse colon cancer-derived CT-26 cells transplanted in BALB/cAnNCrj male mice; experiment: In vivo experiment (2): tumor volume and weight, HVJ-E/BLM into the tumor with or without intraperitoneal CDDP; details: Day 21, physiological saline into the tumor
[2] = test system: mouse colon carcinoma cell CT26; details: 30 minutes at 37° C., counted two days later, HCl
Protocol: A microtube containing the sample was centrifuged at 15,000 rpm for 15 minutes at 4° C. to give the HVJ-E vector as a precipitate, and the supernatant was removed. […] Further, 2 μl of 3% Triton-X100 was added thereto to prepare a sample containing Triton-X100 at a final concentration of 0.1%, which was then left on ice for 15 minutes. Thereafter, 500 μl PBS solution was added thereto. The microtube was centrifuged at 15,000 rpm for 15 minutes at 4° C., and the supernatant was removed without removing the precipitate, and 500 μl PBS solution was added again to the precipitate. The microtube was centrifuged again at 15,000 rpm for 15 minutes at 4° C., and the supernatant was removed without removing the precipitate.
The resulting precipitate was suspended in 180 μl PBS, and the resulting sample solution was pipetted in a volume of 30 μl/microtube into 6 microtubes. Five microlitters of protamine sulfate solution prepared at 5 mg/ml and 500 μl DMEM solution (Dulbecco's modified Eagle medium) were added to each tube.
The above sample solution was added to mouse colon carcinoma cell CT26 prepared on a 6-well plate. The plate was kept for 30 minutes in an incubator at 37° C., and then the medium was exchanged with 500 μl medium (DMEM containing 10% FCS). The cells were incubated for 2 days in a CO2 incubator at 37° C. Two days later, the number of viable cells was counted to evaluate the anticancer effect.

Compound | tumor weight ([1]; CDDP 0.2 mg/body i.p.) [mg] | average tumor volume ([1]; CDDP 0.2 mg/body once intraperitoneally, 10 mice) [mm^3] | tumor weight ([1]; CDDP 0.4 mg/body i.p.) [mg] | average tumor volume ([1]; CDDP 0.4 mg/body once intraperitoneally, 3 mice) [mm^3] | number of viable cells (Mean) ([2]; 1/50 bleomycin group: bleomycin 50 μg/DMEM 500 μl/well) | number of viable cells (Mean) ([2]; 1/500 bleomycin group: bleomycin 5 μg/DMEM 500 μl/well) | number of viable cells (Mean) ([2]; 1/500 bleomycin group: bleomycin 5 μg/DMEM 500 μl/well, listed as Bleomycin) | number of viable cells (Mean) ([2]; 1/5,000 bleomycin group: bleomycin 500 ng/DMEM 500 μl/well) | number of viable cells (Mean) ([2]; 1/5,000 bleomycin group: bleomycin 500 ng/DMEM 500 μl/well, listed as Bleomycin)
[NH2][Pt]([NH2])([Cl])[Cl] [CDDP, cisplatin] | 1619.79 | 1720.14 | 1164.13 | 1367.62 |  |  |  |  | 
bleomycin HCl |  |  |  |  | 81800 | 164,600 | 164600 | 196,800 | 196800
